Literature values, collected in US11925768B2, “Method for decolonizing mammalian skin” (AVADIM HEALTH IP, INC., priority 2014, dated 2024).

Settings: concentrations as low as

For `O=S1(=O)CCN(CN2CCS(=O)(=O)NC2)CN1` [Taurolidine, taurolidine], the “concentration producing intense pain in most tissues” value is listed as “about 10 mg/ml”.
